Species on record: Rattus norvegicus
Assay: Open TG-GATES - Regimen: Daily Repeat
Assay type: toxicity, organism-based, Sprague-Dawley
Design: regimen Daily Repeat, gender Male, age 6 weeks
Conditions: in vivo, po, route gavage; for gamma-GTP / ALP / ALT / AST / BUN / CRE / Ca / Cl / DBIL / GLC / IP / K / LDH / Na / PL / RALB / TBIL / TC / TG / TP: tissue Plasma; for APTT / Bas / Eos / Fbg / Ht / Lym / MCH / MCHC / MCV / Mono / Neu / PT / Plat / RBC / Ret / WBC: tissue Blood; for KIDNEY_L / KIDNEY_R / KIDNEY_TOTAL: tissue Kidney; for LIVER: tissue Liver
[1] = 30 mg/kg, 72 h, dose level Middle, time 3 day
[2] = 30 mg/kg, […], dose level Middle, time 7 day
[3] = 30 mg/kg, […], dose level Middle, time 14 day
[4] = 30 mg/kg, […], dose level Middle, time 28 day
[5] = 100 mg/kg, 72 h, dose level High, time 3 day
[6] = 100 mg/kg, […], dose level High, time 7 day
[7] = 100 mg/kg, […], dose level High, time 14 day
[8] = 100 mg/kg, […], dose level High, time 28 day

## Cc1cccc(Nc2cc(Cl)nc(SCC(=O)O)n2)c1C [PIRINIXIC ACID]
10 mg/kg, […], dose level Low, time 28 day
  gamma-GTP: 1.2 IU/L
[1]
  TERMINAL_BW: 229.5 g
  APTT: 15.8 s
  Bas: 0%
  Eos: 0.8%
  Fbg: 199.8 mg/dL
  Ht: 39.5%
  Lym: 71.6%
  MCH: 21.7 pg
  MCHC: 34.3%
  MCV: 63.4 fL
  Mono: 3.2%
  Neu: 23.8%
  PT: 12.4 s
  Plat: 106.4 x10_4/uL
  RBC: 623.8 x10_4/ul
  Ret: 5.5%
  WBC: 85.4 x10_2/uL
  KIDNEY_L: 1 g
  KIDNEY_R: 1 g
  KIDNEY_TOTAL: 2 g
  LIVER: 15.1 g
  ALP: 1953.2 IU/L
  ALT: 77.6 IU/L
  AST: 112 IU/L
  BUN: 14 mg/dL
  CRE: 0.2 mg/dL
  Ca: 10.7 mg/dL
  Cl: 106.4 meq/L
  DBIL: 0.02 mg/dL
  GLC: 192.6 mg/dL
  IP: 7.1 mg/dL
  K: 4 meq/L
  LDH: 167 IU/L
  Na: 143.6 meq/L
  PL: 106.2 mg/dL
  RALB: 2.6 g/dL
  TBIL: 0.026 mg/dL
  TC: 51 mg/dL
  TG: 31.4 mg/dL
  TP: 5.2 g/dL
  gamma-GTP: 1 IU/L
[2]
  TERMINAL_BW: 270.6 g
  APTT: 18 s
  Bas: 0%
  Eos: 0.8%
  Fbg: 230.8 mg/dL
  Ht: 37.9%
  Lym: 76.6%
  MCH: 22.1 pg
  MCHC: 34%
  MCV: 64.9 fL
  Mono: 3.2%
  Neu: 19%
  PT: 12.7 s
  Plat: 115.8 x10_4/uL
  RBC: 585.4 x10_4/ul
  Ret: 5.5%
  WBC: 114.2 x10_2/uL
  KIDNEY_L: 1.2 g
  KIDNEY_R: 1.1 g
  KIDNEY_TOTAL: 2.3 g
  LIVER: 21.7 g
  ALP: 1797.4 IU/L
  ALT: 53 IU/L
  AST: 71.8 IU/L
  BUN: 19.4 mg/dL
  CRE: 0.2 mg/dL
  Ca: 11.2 mg/dL
  Cl: 103 meq/L
  DBIL: 0.014 mg/dL
  GLC: 191.8 mg/dL
  IP: 7 mg/dL
  K: 4.1 meq/L
  LDH: 180.2 IU/L
  Na: 142.2 meq/L
  PL: 139 mg/dL
  RALB: 2.9 g/dL
  TBIL: 0.032 mg/dL
  TC: 71.6 mg/dL
  TG: 46 mg/dL
  TP: 6.1 g/dL
  gamma-GTP: 1 IU/L
[3]
  TERMINAL_BW: 309.3 g
  APTT: 16.4 s
  Bas: 0%
  Eos: 1%
  Fbg: 214 mg/dL
  Ht: 38.2%
  Lym: 76.8%
  MCH: 21.1 pg
  MCHC: 34.8%
  MCV: 60.5 fL
  Mono: 3.6%
  Neu: 18.2%
  PT: 12.8 s
  Plat: 136.3 x10_4/uL
  RBC: 631.8 x10_4/ul
  Ret: 4.3%
  WBC: 121.9 x10_2/uL
  KIDNEY_L: 1.4 g
  KIDNEY_R: 1.3 g
  KIDNEY_TOTAL: 2.7 g
  LIVER: 25.2 g
  ALP: 1895.2 IU/L
  ALT: 48.2 IU/L
  AST: 66.6 IU/L
  BUN: 19.2 mg/dL
  CRE: 0.2 mg/dL
  Ca: 10.5 mg/dL
  Cl: 102.6 meq/L
  DBIL: 0.016 mg/dL
  GLC: 194.6 mg/dL
  IP: 7.1 mg/dL
  K: 3.9 meq/L
  LDH: 114 IU/L
  Na: 141.8 meq/L
  PL: 144.4 mg/dL
  RALB: 2.9 g/dL
  TBIL: 0.034 mg/dL
  TC: 69.6 mg/dL
  TG: 51.6 mg/dL
  TP: 6.1 g/dL
  gamma-GTP: 1.4 IU/L
[4]
  TERMINAL_BW: 373.2 g
  APTT: 15.2 s
  Bas: 0%
  Eos: 1%
  Fbg: 223.8 mg/dL
  Ht: 39.5%
  Lym: 78%
  MCH: 19.6 pg
  MCHC: 34.9%
  MCV: 56.2 fL
  Mono: 3%
  Neu: 17.6%
  PT: 12.4 s
  RBC: 703.4 x10_4/ul
  Ret: 3.3%
  WBC: 108.3 x10_2/uL
  KIDNEY_L: 1.5 g
  KIDNEY_R: 1.5 g
  KIDNEY_TOTAL: 3 g
  LIVER: 29.4 g
  ALP: 1970.8 IU/L
  ALT: 47.2 IU/L
  AST: 62.4 IU/L
  BUN: 18.2 mg/dL
  CRE: 0.2 mg/dL
  Ca: 10.7 mg/dL
  Cl: 102.8 meq/L
  DBIL: 0.012 mg/dL
  GLC: 189.2 mg/dL
  IP: 7.2 mg/dL
  K: 3.7 meq/L
  LDH: 111.4 IU/L
  Na: 141.6 meq/L
  PL: 149 mg/dL
  RALB: 3 g/dL
  TBIL: 0.05 mg/dL
  TC: 70.6 mg/dL
  TG: 55.4 mg/dL
  TP: 6.5 g/dL
  gamma-GTP: 1.2 IU/L
[5]
  TERMINAL_BW: 236.1 g
  APTT: 16.4 s
  Bas: 0%
  Eos: 1%
  Fbg: 210.2 mg/dL
  Ht: 39.4%
  Lym: 73.4%
  MCH: 21.2 pg
  MCHC: 34%
  MCV: 62.5 fL
  Mono: 3%
  Neu: 22%
  PT: 12.2 s
  Plat: 112.9 x10_4/uL
  RBC: 630.2 x10_4/ul
  Ret: 5.7%
  WBC: 78.7 x10_2/uL
  KIDNEY_L: 1.1 g
  KIDNEY_R: 1.1 g
  KIDNEY_TOTAL: 2.1 g
  LIVER: 16.9 g
  ALP: 1976.4 IU/L
  ALT: 70.6 IU/L
  AST: 103.4 IU/L
  BUN: 15.8 mg/dL
  CRE: 0.2 mg/dL
  Ca: 10.8 mg/dL
  Cl: 105.2 meq/L
  DBIL: 0.022 mg/dL
  GLC: 192.2 mg/dL
  IP: 7.3 mg/dL
  K: 4.1 meq/L
  LDH: 189.6 IU/L
  Na: 144 meq/L
  PL: 116 mg/dL
  RALB: 2.7 g/dL
  TBIL: 0.028 mg/dL
  TC: 59 mg/dL
  TG: 34 mg/dL
  TP: 5.4 g/dL
  gamma-GTP: 1 IU/L
[6]
  TERMINAL_BW: 275.8 g
  APTT: 15.4 s
  Bas: 0%
  Eos: 0.8%
  Fbg: 225 mg/dL
  Ht: 36.2%
  Lym: 76.6%
  MCH: 21.4 pg
  MCHC: 34.3%
  MCV: 62.4 fL
  Mono: 3.2%
  Neu: 19%
  PT: 12.5 s
  Plat: 129.5 x10_4/uL
  RBC: 580.4 x10_4/ul
  Ret: 5.9%
  WBC: 116.4 x10_2/uL
  KIDNEY_L: 1.2 g
  KIDNEY_R: 1.2 g
  KIDNEY_TOTAL: 2.3 g
  LIVER: 24.1 g
  ALP: 1688.2 IU/L
  ALT: 46.4 IU/L
  AST: 66.4 IU/L
  BUN: 18.8 mg/dL
  CRE: 0.2 mg/dL
  Ca: 11.3 mg/dL
  Cl: 102.8 meq/L
  DBIL: 0.014 mg/dL
  GLC: 201.8 mg/dL
  IP: 7.4 mg/dL
  K: 4 meq/L
  LDH: 142 IU/L
  Na: 142 meq/L
  PL: 143 mg/dL
  RALB: 3 g/dL
  TBIL: 0.026 mg/dL
  TC: 69.4 mg/dL
  TG: 52 mg/dL
  TP: 6.1 g/dL
  gamma-GTP: 0.6 IU/L
[7]
  TERMINAL_BW: 297.8 g
  APTT: 17.3 s
  Bas: 0%
  Eos: 0.8%
  Fbg: 207 mg/dL
  Ht: 38.8%
  Lym: 75.4%
  MCH: 20.3 pg
  MCHC: 34.6%
  MCV: 58.7 fL
  Mono: 3.6%
  Neu: 19.4%
  PT: 12.9 s
  Plat: 121.9 x10_4/uL
  RBC: 661.2 x10_4/ul
  Ret: 4.3%
  WBC: 147.9 x10_2/uL
  KIDNEY_L: 1.3 g
  KIDNEY_R: 1.3 g
  KIDNEY_TOTAL: 2.6 g
  LIVER: 26.1 g
  ALP: 1872.4 IU/L
  ALT: 49.6 IU/L
  AST: 75 IU/L
  BUN: 19.4 mg/dL
  CRE: 0.2 mg/dL
  Ca: 10.4 mg/dL
  Cl: 102.8 meq/L
  DBIL: 0.022 mg/dL
  GLC: 189.6 mg/dL
  IP: 7.1 mg/dL
  K: 3.8 meq/L
  LDH: 141 IU/L
  Na: 141.8 meq/L
  PL: 149.6 mg/dL
  RALB: 2.9 g/dL
  TBIL: 0.032 mg/dL
  TC: 74.8 mg/dL
  TG: 44.4 mg/dL
  TP: 6.1 g/dL
  gamma-GTP: 1.2 IU/L
[8]
  TERMINAL_BW: 351.6 g
  APTT: 16.6 s
  Bas: 0%
  Eos: 1.2%
  Fbg: 216.6 mg/dL
  Ht: 39.4%
  Lym: 74.2%
  MCH: 18.8 pg
  MCHC: 35%
  MCV: 53.7 fL
  Mono: 4%
  Neu: 19.6%
  PT: 12.4 s
  RBC: 734.2 x10_4/ul
  Ret: 2.5%
  WBC: 118.8 x10_2/uL
  KIDNEY_L: 1.6 g
  KIDNEY_R: 1.6 g
  KIDNEY_TOTAL: 3.1 g
  LIVER: 30.8 g
  ALP: 1888.4 IU/L
  ALT: 41.8 IU/L
  AST: 65.8 IU/L
  BUN: 17.2 mg/dL
  CRE: 0.2 mg/dL
  Ca: 10.8 mg/dL
  Cl: 102.2 meq/L
  DBIL: 0.008 mg/dL
  GLC: 189.2 mg/dL
  IP: 7.6 mg/dL
  K: 3.7 meq/L
  LDH: 109 IU/L
  Na: 141.8 meq/L
  PL: 147.4 mg/dL
  RALB: 3 g/dL
  TBIL: 0.048 mg/dL
  TC: 80 mg/dL
  TG: 43.6 mg/dL
  TP: 6.6 g/dL
  gamma-GTP: 1 IU/L
